System: Coccinella septempunctata
Test: Wind tunnel experiment: behavioral responses of ladybugs to the attractant
Format: in vivo
Details: for Proportion of Knocking Filter Paper, Female Proportion / Proportion of Passing Through ½ of Wind Tunnel, Female Proportion / Proportion of Take Off, Female Proportion: female ladybugs; for Proportion of Knocking Filter Paper, Female Proportion / Proportion of Knocking Filter Paper, Male Proportion: number of insects knocking filter paper/total number of insects; for Proportion of Knocking Filter Paper, Female Proportion / Proportion of Passing Through ½ of Wind Tunnel, Female Proportion / Proportion of Take Off, Female Proportion / Proportion of Knocking Filter Paper, Male Proportion / Proportion of Passing Through ½ of Wind Tunnel, Male Proportion / Proportion of Take Off, Male Proportion: 30 min, 28° C., wind speed 0.3 m/s; for Proportion of Passing Through ½ of Wind Tunnel, Female Proportion / Proportion of Passing Through ½ of Wind Tunnel, Male Proportion: number of insects passing through ½ of wind tunnel/total number of insects; for Proportion of Take Off, Female Proportion / Proportion of Take Off, Male Proportion: number of take-off insects/total number of insects; for Proportion of Knocking Filter Paper, Male Proportion / Proportion of Passing Through ½ of Wind Tunnel, Male Proportion / Proportion of Take Off, Male Proportion: male ladybugs; for Attraction of ladybugs in the wind tunnel, result in words: summary of wind tunnel results
Procedure: (§1) Wind tunnel experiments were performed using a wind tunnel device to determine the behavioral responses of ladybugs to the attractant. The wind tunnel device is 90 cm long, 35 cm wide and 35 cm high. The desired ladybugs were put into a glass tube 30 minutes before the test, and both the ends of the glass tube were sealed with absorbent cotton to adapt the ladybugs to the environment in the wind tunnel. The filter paper-loaded compound was placed on the upper air outlet, and the wind speed in the wind tunnel was 0.3 m/s. The whole process of bioassay was carried out at 28° C. The glass tube was placed at the end of the lower air outlet of the wind tunnel. Timing started and lasted for 30 min. The numbers of take-offs, directional flights, and proximity to attractant sources were recorded and their relative proportions were calculated. The experimental method was referred to the wind tunnel experiment of Binyameen M et al (Journal of Chemical Ecology, 2013, 39(10):1273-1283).
The behavioral responses of ladybugs to the attractants in Comparative Examples 1-5 were measured by using a wind tunnel device (same conditions as in Example 1).
as §1, with “to the attractants. The wind” for “to the attractant. The wind”, “glass tube with the ladybugs was placed” for “glass tube was placed”, “min. The proportions of take-offs,” for “min. The numbers of take-offs,”, “sources were recorded.” for “sources were recorded and their relative proportions were calculated. The experimental method was referred to the wind tunnel experiment of Binyameen M et al (Journal of Chemical Ecology, 2013, 39(10):1273-1283).”
Wind tunnel experiments were performed using a wind tunnel device to determine the behavioral responses of ladybugs to the attractants of Example 3 and Comparative Examples 6-10.
Wind tunnel experiments were performed using a wind tunnel device to determine the behavioral responses of ladybugs to the attractants of Example 4 and Comparative Examples11-20.
Note: Coccinella septempunctata were used in the above wind tunnel experiments; when the Rodolia limbata, Harmonia axyridis, Propylaea japonica and Chilocorus rubidus hope were taken as the experiment objects, the results (trend) were basically the same as that of Coccinella septempunctata.

Structure (SMILES) | Proportion of Knocking Filter Paper, Female Proportion | Proportion of Passing Through ½ of Wind Tunnel, Female Proportion | Proportion of Take Off, Female Proportion | Proportion of Knocking Filter Paper, Male Proportion | Proportion of Passing Through ½ of Wind Tunnel, Male Proportion | Proportion of Take Off, Male Proportion | Attraction of ladybugs in the wind tunnel, result in words
CC(C)=CCC/C(C)=C/CC/C(C)=C/CC/C=C(\C)CC/C=C(\C)CCC=C(C)C [Comparative Example 20, squalene] | 13.3% | 61.7% | 20% | 6.7% | 66.7% | 26.8%^ | number of insects knocking filter paper was significant less that the other examples
CC(C)CC=O [Comparative Example 19, isovaleraldehyde] | 11.7% | 58.3% | 13.3% | 15% | 56.7% | 10% | poor attraction to female and male ladybugs
CCC/C=C/C(=O)O [Comparative Example 18, trans-2-hexenoic acid] | 10% | 53.3% | 11.7% | 8.3% | 46.7% | 20% | poor attraction to female and male ladybugs
C=CC1(C)CCC(C(=C)C)CC1C(=C)C (stereo not shown) [Comparative Example 16, 1-vinyl-1-methyl-2,4-di (propyl-1-ene-2-yl) cyclohexane] | 0% | 13.3% | 0% | 11.7% | 73.3% | 21.7%^ | better effect on attracting male ladybugs but worse than Example 4

From US10959427B2, “Attractant of ladybugs, aphid's natural enemy” (Zhejiang University, priority 2018, dated 2021)
